pIC50: −log10 of the molar value.
The compounds below were run against ALR2 (Rattus norvegicus, UniProt P07943) (assay: ALR2 enzymatic inhibition, spectrophotometric NADPH oxidation at 340 nm). Conditions: not given.
Type: biochemical

pIC50 | Compound
5.30 | COc1ccc(C2(C)CC3(CN(CC(=O)O)C(=O)CO3)c3cc(Br)ccc3O2)cc1 (centres unmarked) [Compound 4, 2-(6-Bromo-2-(4-methoxyphenyl)-2-methyl-5'-oxospiro[chroman-4,2'-morpholin]-4'-yl) acetic acid]
4.37 | CC1(C)CC2(CN(CC(=O)O)C(=O)O2)c2ccccc2O1 (centres unmarked) [Compound 5, 2-(2,2-Dimethyl-2'-oxospiro[chroman-4,5'-oxazolidin]-3'-yl) acetic acid]
4.76 | CC1(C)CC2(CN(CC(=O)O)C(=O)O2)c2cc(Br)ccc2O1 (centres unmarked) [Compound 6, 2-(6-Bromo-2,2-dimethyl-2'-oxospiro[chroman-4,5'-oxazolidin]-3'-yl) acetic acid]
5.70 | CC1(C)CC2(CN(CC(=O)O)C(=O)CO2)c2ccccc2O1 (centres unmarked) [Compound 7, 2-(2,2-Dimethyl-5'-oxospiro[chroman-4,2'-morpholin]-4'-yl) acetic acid]
5.38 | CC1(C)CC2(CN(CC(=O)O)CCO2)c2cc(Br)ccc2O1 (centres unmarked) [Compound 10, 2-(6-Bromo-2,2-dimethylspiro[chroman-4,2'-morpholin]-4'-yl) acetic acid]
5.38 | COc1cccc(COc2ccccc2C2(C)CN(CC(=O)O)C(=O)O2)c1 (centres unmarked) [Compound 11, 2-(5-(2-((3-Methoxybenzyl)oxy)phenyl)-5-methyl-2-oxooxazolidin-3-yl)acetic acid]
5.50 | COc1cc(COc2ccccc2C2(C)CN(CC(=O)O)C(=O)O2)cc(OC)c1OC (centres unmarked) [Compound 13, 2-(5-Methyl-2-oxo-5-(2-((3,4,5-trimethoxybenzyl)oxy)phenyl)oxazolidin-3-yl)acetic acid]

Same assay, conditions: IC50 4.97 vs 0.58 μM

fold reduction in ARL2 inhibitory efficacy compared to parent 2 [fold] | Compound
~8 | COc1ccc(C2(C)CC3(CN(CC(=O)O)C(=O)CO3)c3cc(Br)ccc3O2)cc1 (centres unmarked) [Compound 4, 2-(6-Bromo-2-(4-methoxyphenyl)-2-methyl-5'-oxospiro[chroman-4,2'-morpholin]-4'-yl) acetic acid]

Reference: article PMC5418920 (The Open Medicinal Chemistry Journal, 2017)
